Data reported in the supplement of paper PMC10307832.

What was measured:
Test in all cases: relative viability (nuclei count vs DMSO), 5 days (fraction); higher = more cells survive
Lapatinib + Trametinib = compound: CS(=O)(=O)CCNCc1ccc(-c2ccc3ncnc(Nc4ccc(OCc5cccc(F)c5)c(Cl)c4)c3c2)o1 [Lapatinib] + CC(=O)Nc1cccc(-n2c(=O)n(C3CC3)c(=O)c3c(Nc4ccc(I)cc4F)n(C)c(=O)c(C)c32)c1 [Trametinib] (partner 0.02 µM)
Method in brief: (§1)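 After 5 days of treatment, lung cancer cells in 1536-well plates were fixed and stained in a single step (final 0.05% Triton X-100, 1% formaldehyde, 1 ug/ml Hoechst) and their nuclei counted on 4× images. Treatment had been applied by pin tool the day after seeding as one drug alone or as a fixed anchor-drug dose with five library-drug doses (not always all listed) in √10 steps. Relative viability is the nuclei count of treated wells divided by that of vehicle wells, and values are medians of duplicate plates.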

Lapatinib + Pictilisib = compound: CS(=O)(=O)CCNCc1ccc(-c2ccc3ncnc(Nc4ccc(OCc5cccc(F)c5)c(Cl)c4)c3c2)o1 [Lapatinib] + CS(=O)(=O)N1CCN(Cc2cc3nc(-c4cccc5[nH]ncc45)nc(N4CCOCC4)c3s2)CC1 [Pictilisib] (partner 1 µM)
Method in brief: as §1

Lapatinib + Palbociclib = compound: CS(=O)(=O)CCNCc1ccc(-c2ccc3ncnc(Nc4ccc(OCc5cccc(F)c5)c(Cl)c4)c3c2)o1 [Lapatinib] + CC(=O)c1c(C)c2cnc(Nc3ccc(N4CCNCC4)cn3)nc2n(C2CCCC2)c1=O [Palbociclib] (partner 0.5 µM)
Method in brief: as §1

Wnt-C59 + AZD7762 = compound: CC1=NC=CC(=C1)C2=CC=C(C=C2)CC(=O)NC3=CC=C(C=C3)C4=CN=CC=C4 [Wnt-C59] + NC(=O)Nc1cc(-c2cccc(F)c2)sc1C(=O)N[C@H]1CCCNC1 [AZD7762] (partner 0.2 µM)
Method in brief: as §1

Row | Cell Line | relative viability (Lapatinib + Trametinib; first compound 0.02 µM) | relative viability (Lapatinib + Trametinib; first compound 0.06325 µM) | relative viability (Lapatinib + Trametinib; first compound 0.2 µM) | relative viability (Lapatinib + Trametinib; first compound 0.6325 µM) | relative viability (Lapatinib + Trametinib; first compound 2 µM) | relative viability (Lapatinib + Pictilisib; first compound 0.02 µM) | relative viability (Lapatinib + Pictilisib; first compound 0.06325 µM) | relative viability (Lapatinib + Pictilisib; first compound 0.2 µM) | relative viability (Lapatinib + Pictilisib; first compound 0.6325 µM) | relative viability (Lapatinib + Pictilisib; first compound 2 µM) | relative viability (Lapatinib + Palbociclib; first compound 0.02 µM) | relative viability (Lapatinib + Palbociclib; first compound 0.06325 µM) | relative viability (Lapatinib + Palbociclib; first compound 0.2 µM) | relative viability (Lapatinib + Palbociclib; first compound 0.6325 µM) | relative viability (Lapatinib + Palbociclib; first compound 2 µM) | relative viability (Wnt-C59 + AZD7762; first compound 0.001 µM) | relative viability (Wnt-C59 + AZD7762; first compound 0.01 µM) | relative viability (Wnt-C59 + AZD7762; first compound 0.03162 µM) | relative viability (Wnt-C59 + AZD7762; first compound 0.1 µM)
1 | LOU-NH91 | 0.787 | 0.684 | 0.726 | 0.709 | 0.665 | 0.395 | 0.451 | 0.425 | 0.513 | 0.447 | 0.542 | 0.525 | 0.508 | 0.494 | 0.57 | 0.765 | 0.67 | 0.778 | 0.761
2 | LU99A | 0.532 | 0.453 | 0.448 | 0.511 | 0.536 | 0.337 | 0.26 | 0.345 | 0.346 | 0.372 | 0.449 | 0.299 | 0.385 | 0.424 | 0.39 | 0.374 | 0.491 | 0.338 | 0.313
3 | LXF-289 | 0.713 | 0.689 | 0.68 | 0.652 | 0.631 | 0.762 | 0.717 | 0.744 | 0.784 | 0.737 | 0.615 | 0.588 | 0.588 | 0.577 | 0.526 | 1.06 | 1.07 | 1.09 | 1.07
4 | NCI-H23 |  |  | 0.368 | 0.467 | 0.398 |  |  | 0.506 | 0.482 | 0.483 |  |  | 0.488 | 0.512 | 0.457 | 0.244 | 0.257 | 0.243 | 0.296
5 | NCI-H322M | 0.493 | 0.435 | 0.492 | 0.508 | 0.377 | 0.555 | 0.31 | 0.483 | 0.504 | 0.404 | 0.464 | 0.432 | 0.455 | 0.446 | 0.434 | 0.575 | 0.577 | 0.511 | 0.536
6 | NCI-H358 | 0.135 | 0.108 | 0.122 | 0.123 | 0.121 | 0.334 |  | 0.301 | 0.304 | 0.309 | 0.16 | 0.124 | 0.13 | 0.132 | 0.104 | 0.448 | 0.582 | 0.588 | 0.617
7 | NCI-H441 | 0.429 |  | 0.398 | 0.392 | 0.417 | 0.332 | 0.417 | 0.431 | 0.422 | 0.453 | 0.222 |  | 0.176 | 0.236 | 0.185 | 1.19 | 1.35 | 1.48 | 0.997
8 | NCI-H460 | 0.0377 | 0.0952 | 0.282 | 0.171 | 0.0626 | 0.057 | 0.276 | 0.303 | 0.355 | 0.251 | 0.116 | 0.168 | 0.149 | 0.149 | 0.118 | 0.554 | 0.605 | 0.568 | 0.673
9 | NCI-H647 | 0.394 | 0.42 | 0.45 | 0.641 | 0.224 |  | 0.435 |  | 0.364 | 0.431 | 0.393 | 0.393 | 0.434 | 0.292 | 0.307 | 0.554 | 0.389 | 0.502 | 0.472
10 | NCI-H650 |  | 0.78 | 0.965 | 0.955 | 0.927 |  | 0.918 | 0.888 | 0.782 | 1.04 |  | 0.315 | 0.346 | 0.319 | 0.334 | 0.883 | 1.03 | 0.969 | 1.24
11 | NCI-H727 | 0.365 |  | 0.436 | 0.382 | 0.363 | 0.339 | 0.246 | 0.434 | 0.357 | 0.343 | 0.65 |  | 0.653 | 0.618 | 0.557 | 0.776 | 0.528 | 0.598 | 0.687
12 | NCI-H838 | 0.609 | 0.436 | 0.575 | 0.517 | 0.483 | 0.48 | 0.409 | 0.505 | 0.449 | 0.458 | 0.225 | 0.193 | 0.201 | 0.238 | 0.178 | 0.958 | 0.942 | 0.966 | 0.883
13 | NCI-H1355 | 0.406 | 0.349 | 0.37 | 0.387 | 0.261 |  | 0.419 | 0.496 | 0.499 | 0.285 | 0.411 | 0.29 | 0.402 | 0.361 | 0.268 | 0.81 | 0.753 | 0.753 | 0.766
14 | NCI-H1395 |  | 0.956 | 1.07 | 1.06 | 1.03 |  | 0.66 | 0.527 | 0.696 | 0.583 |  | 0.621 | 0.581 | 0.598 | 0.616 | 0.39 | 0.383 | 0.426 | 0.389
15 | NCI-H1437 | 0.475 | 0.492 | 0.498 | 0.458 | 0.303 | 0.5 | 0.314 | 0.386 | 0.482 | 0.422 | 0.281 | 0.297 | 0.305 | 0.322 | 0.294 | 1.14 | 1.16 | 1.18 | 1.08
16 | NCI-H1651 | 0.856 | 0.809 | 0.827 | 0.806 | 0.811 | 0.561 | 0.472 | 0.526 | 0.613 | 0.596 | 0.547 | 0.456 | 0.483 | 0.478 | 0.514 | 0.502 | 0.394 | 0.551 | 0.459
17 | NCI-H1666 | 0.722 | 0.718 | 0.727 | 0.674 | 0.501 | 0.33 | 0.327 | 0.39 | 0.329 | 0.2 | 0.63 | 0.632 | 0.674 | 0.65 | 0.633 | 0.95 | 0.819 | 0.82 | 0.857
